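The compound was tested at five concentrations on cells cultured in 96-well plates, with a 48-hour exposure period. GI50 = concentration required for 50% inhibition of growth.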 The source made the active and inactive calls. Rule as the data show it: active = GI50 up to about 1.1 µM and inactive = higher.
Assays:
Test in all cases: NCI-60 cell line screen, 48 h
LXFL 529 = system: LXFL 529
XF498 = system: XF498
DMS-273 = system: DMS-273
RXF 631 = system: RXF 631
KM-20L2 = system: KM-20L2
M19-MEL = system: M19-MEL
DMS-114 = system: DMS-114
HOP-18 = system: HOP-18
BT-549 = system: BT-549

| Structure (SMILES) | GI50 (LXFL 529) | GI50 (XF498) | GI50 (DMS-273) | GI50 (RXF 631) | GI50 (KM-20L2) | GI50 (M19-MEL) | GI50 (DMS-114) | GI50 (HOP-18) | GI50 (BT-549) |
| --- | --- | --- | --- | --- | --- | --- | --- | --- | --- |
| CC(C)(C)C1=CC(=NNC(=S)NCc2ccccc2)C=C(C(C)(C)C)C1=O | 63.1 µM (inactive) | > 100 µM (inactive) | > 100 µM (inactive) | > 100 µM (inactive) | > 100 µM (inactive) | 98.4 µM (inactive) | 54.8 µM (inactive) | – | – |
| CC(N)C(=O)OCN1C(=O)C2C3C=CC(C2C1=O)C1C2C(=O)N(COC(=O)C(C)N)C(=O)C2C31 (stereo not given) | 26.4 µM (inactive) | 19 µM (inactive) | 18.5 µM (inactive) | – | 28.2 µM (inactive) | 23.6 µM (inactive) | 17 µM (inactive) | > 100 µM (inactive) | – |
| CCCCCCCCCCCCCCCCCCOCC1(COP(=O)([O-])OCC[N+](C)(C)C)CCCO1 (stereo not given) | 4.92 µM (inactive) | 7.64 µM (inactive) | 1.75 µM (inactive) | – | 3.26 µM (inactive) | 2.99 µM (inactive) | 5.16 µM (inactive) | 2.82 µM (inactive) | – |
| NC(=O)COC(=O)c1c(Cl)nc2sccn12 | > 65.5 µM (inactive) | > 100 µM (inactive) | 81.7 µM (inactive) | > 100 µM (inactive) | > 100 µM (inactive) | > 84.3 µM (inactive) | > 52.1 µM (inactive) | > 100 µM (inactive) | – |
| O=C1CCC2(c3ccccc3)Nc3ccccc3N12 (stereo not given) | > 100 µM (inactive) | > 100 µM (inactive) | – | > 100 µM (inactive) | > 100 µM (inactive) | > 100 µM (inactive) | > 100 µM (inactive) | – | – |
| CN1C[C@@H]2CC(=O)CC[C@@H]2C[C@H]1C#N | > 100 µM (inactive) | > 100 µM (inactive) | – | > 100 µM (inactive) | > 100 µM (inactive) | – | > 100 µM (inactive) | – | – |
| O=C1NC2C(O)CCCCC2C12CCCCC2 (stereo not given) | > 100 µM (inactive) | > 100 µM (inactive) | > 100 µM (inactive) | > 100 µM (inactive) | – | > 100 µM (inactive) | > 100 µM (inactive) | > 100 µM (inactive) | – |
| CCOC(=O)C1=C(NC(C)(C)C)OCC1=O | > 100 µM (inactive) | > 100 µM (inactive) | – | > 100 µM (inactive) | > 100 µM (inactive) | – | – | – | – |
| Cn1c(=O)nc2n(-c3ccc(Cl)cc3)c3cc(Cl)ccc3nc-2c1=O | 1.7 µM (inactive) | 1.41 µM (inactive) | 3.56 µM (inactive) | 1.97 µM (inactive) | 3.44 µM (inactive) | 1.75 µM (inactive) | 1.78 µM (inactive) | 14.9 µM (inactive) | 4.12 µM (inactive) |
| COc1ccc(OC)c2c(C(=O)O)c(C(C)c3ccccc3)ccc12 (stereo not given) | > 100 µM (inactive) | – | > 100 µM (inactive) | > 100 µM (inactive) | > 100 µM (inactive) | > 100 µM (inactive) | – | > 100 µM (inactive) | – |
| CCOC(OCC)C(CC)[Se]c1ccccc1 (stereo not given) | 35.6 µM (inactive) | > 100 µM (inactive) | 14.1 µM (inactive) | 8.49 µM (inactive) | 19.5 µM (inactive) | 19.3 µM (inactive) | 2.82 µM (inactive) | 65.2 µM (inactive) | – |
| CC1(C)SCc2nc3ncccc3n21 | > 100 µM (inactive) | > 100 µM (inactive) | – | > 100 µM (inactive) | > 100 µM (inactive) | > 100 µM (inactive) | > 100 µM (inactive) | – | – |
| OCCCCCCOc1ccc(-c2cc(-c3ccccn3)nc(-c3ccccn3)c2)cc1 | 0.242 µM (active) | 1.51 µM (inactive) | 0.211 µM (active) | – | 0.0897 µM (active) | 0.253 µM (active) | 0.207 µM (active) | 0.182 µM (active) | 0.149 µM (active) |
| COc1ccc(Br)c(N/N=C2\CCCNC2=O)c1 | > 100 µM (inactive) | 69.2 µM (inactive) | > 100 µM (inactive) | > 100 µM (inactive) | > 100 µM (inactive) | > 100 µM (inactive) | 90.8 µM (inactive) | 39.6 µM (inactive) | – |
| CCN(CC)CCNc1ccc2nc(C)n3c4ccc(O)cc4c(=O)c1c23 | 0.78 µM (active) | – | 0.37 µM (active) | 0.331 µM (active) | – | 3.49 µM (inactive) | 1.42 µM (inactive) | – | – |
| COc1ccc2oc3cccc(NCCN(C)C)c3c(=O)c2c1 | 13.1 µM (inactive) | 14.5 µM (inactive) | 12.1 µM (inactive) | 13.7 µM (inactive) | 9.14 µM (inactive) | 15.3 µM (inactive) | 12.9 µM (inactive) | 11.6 µM (inactive) | – |
| Cc1cc2c(=O)cc(-c3ccc(C(=O)O)cc3)oc2c(C(=O)O)c1C | > 100 µM (inactive) | – | > 100 µM (inactive) | > 100 µM (inactive) | > 100 µM (inactive) | > 100 µM (inactive) | > 100 µM (inactive) | > 100 µM (inactive) | – |
| CC(C)c1cccc(C(C)C)c1NC(=O)/C(Cc1nc2ccc(Cl)cc2nc1O)=N\NC(=O)C[N+](C)(C)C | – | – | – | > 100 µM (inactive) | > 100 µM (inactive) | > 100 µM (inactive) | > 100 µM (inactive) | – | – |
| CC(C)(Oc1ccc(C(=O)c2ccc(Cl)cc2)cc1Cl)C(=O)N1CCN(c2ccccc2)CC1 | > 100 µM (inactive) | 52.1 µM (inactive) | 55.7 µM (inactive) | – | > 100 µM (inactive) | > 100 µM (inactive) | 45.7 µM (inactive) | > 100 µM (inactive) | – |
| C[C@]12CCC[C@H](O)[C@H]1C[C@H](CO)CC2 | > 100 µM (inactive) | > 100 µM (inactive) | > 100 µM (inactive) | > 100 µM (inactive) | > 100 µM (inactive) | > 100 µM (inactive) | – | > 100 µM (inactive) | – |
| COc1cc2c(c(OC)c1OC)-c1ccc(SC)c(=O)cc1[C@@H](NC(=O)c1ccc(Cl)cc1)CC2 | < 0.01 µM (active) | – | < 0.01 µM (active) | < 0.01 µM (active) | < 0.01 µM (active) | < 0.01 µM (active) | < 0.01 µM (active) | – | – |
| COC1C(N)C(OC2C(Oc3cccc4c(O)c5c(=O)oc6ccc(C)c7c(=O)oc(c34)c5c67)OC(C)C(O)C2(C)O)OC(C)C1O (stereo not given) | < 0.0121 µM (active) | < 0.0116 µM (active) | < 0.01 µM (active) | 0.0351 µM (active) | 0.0568 µM (active) | 0.0166 µM (active) | 0.0229 µM (active) | 0.152 µM (active) | 0.0192 µM (active) |
| COC(=O)C(=Cc1cc(OC)ccc1OC)C(=O)OC | 16.6 µM (inactive) | 25.5 µM (inactive) | 32.3 µM (inactive) | 32 µM (inactive) | – | 22 µM (inactive) | 20.8 µM (inactive) | – | – |
